Measured values: patent US10647684B2, “2-aminopyrimidine derivatives for the treatment of viral infections” (Janssen Sciences Ireland Unlimited Company, priority 2013, dated 2020)

Tests used:
Format in all cases: cell-based
human TLR7 = target: T1, human TLR7 (Homo sapiens, UniProt Q9NYK1); test: TLR7 cellular reporter assay (HEK293, NFκB-luc); details: lowest effective concentration; HEK293 transiently transfected with TLR7 and NFκB-luc; 6 hours incubation
T1 construct: expressed in transfected cells; host or cells: HEK293
T1 sequence (Q9NYK1 27-1049): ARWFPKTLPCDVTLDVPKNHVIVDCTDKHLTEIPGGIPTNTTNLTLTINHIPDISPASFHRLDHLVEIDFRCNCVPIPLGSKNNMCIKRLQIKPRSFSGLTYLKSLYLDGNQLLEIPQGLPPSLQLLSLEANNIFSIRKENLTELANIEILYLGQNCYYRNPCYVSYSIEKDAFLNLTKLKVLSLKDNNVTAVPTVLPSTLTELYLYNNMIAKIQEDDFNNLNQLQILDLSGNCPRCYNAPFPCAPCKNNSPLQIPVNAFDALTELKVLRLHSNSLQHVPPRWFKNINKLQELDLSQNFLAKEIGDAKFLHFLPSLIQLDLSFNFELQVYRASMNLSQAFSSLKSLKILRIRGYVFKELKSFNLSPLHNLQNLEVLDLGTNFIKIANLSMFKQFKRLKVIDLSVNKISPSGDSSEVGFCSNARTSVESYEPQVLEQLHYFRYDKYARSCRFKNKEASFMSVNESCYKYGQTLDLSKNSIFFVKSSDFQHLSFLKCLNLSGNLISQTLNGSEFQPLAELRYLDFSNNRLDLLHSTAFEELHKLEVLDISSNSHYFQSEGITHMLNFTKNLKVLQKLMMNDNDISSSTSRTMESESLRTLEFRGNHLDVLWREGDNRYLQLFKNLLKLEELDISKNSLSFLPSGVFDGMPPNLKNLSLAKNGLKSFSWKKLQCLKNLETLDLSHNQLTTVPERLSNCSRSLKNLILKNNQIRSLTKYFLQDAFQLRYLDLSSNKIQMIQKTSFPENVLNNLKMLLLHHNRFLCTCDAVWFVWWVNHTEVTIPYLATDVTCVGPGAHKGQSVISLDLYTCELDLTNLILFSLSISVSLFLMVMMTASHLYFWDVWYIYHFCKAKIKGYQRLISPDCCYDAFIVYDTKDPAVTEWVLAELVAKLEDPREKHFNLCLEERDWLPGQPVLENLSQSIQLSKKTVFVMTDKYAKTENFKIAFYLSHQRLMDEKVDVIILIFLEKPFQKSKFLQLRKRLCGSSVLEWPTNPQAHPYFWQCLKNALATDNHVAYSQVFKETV
Procedure: (§1) The ability of compounds to activate human TLR7 and/or TLR8 was assessed in a cellular reporter assay using HEK293 cells transiently transfected with a TLR7 or TLR8 expression vector and NFκB-luc reporter construct.
(§2) Briefly, HEK293 cells were grown in culture medium (DMEM supplemented with 10% FCS and 2 mM Glutamine). For transfection of cells in 15 cm dishes, cells were detached with Trypsin-EDTA, transfected with a mix of CMV-TLR7 or TLR8 plasmid (1700 ng), NFκB-luc plasmid (850 ng) and a transfection reagent and incubated for 48 h at 37° C. in a humidified 5% CO2 atmosphere. Transfected cells were then washed in PBS, detached with Trypsin-EDTA and resuspended in medium to a density of 1.25×10^5 cells/mL. Forty microliters of cells were then dispensed into each well in 384-well plates, where 200 nL of compound in 100% DMSO was already present. Following 6 hours incubation at 37° C., 5% CO2, the luciferase activity was determined by adding 15 μL of Steady Lite Plus substrate (Perkin Elmer) to each well and readout performed on a ViewLux ultraHTS microplate imager (Perkin Elmer). Dose response curves were generated from measurements performed in quadruplicates. Lowest effective concentrations (LEC) values, defined as the concentration that induces an effect which is at least two fold above the standard deviation of the assay, were determined for each compound.

human TLR8 = target: T2, human TLR8 (Homo sapiens, UniProt Q9NR97); test: TLR8 cellular reporter assay (HEK293, NFκB-luc); details: lowest effective concentration; HEK293 transiently transfected with TLR8 and NFκB-luc; 6 hours incubation
T2 construct: expressed in transfected cells; host or cells: HEK293
T2 sequence (Q9NR97 27-1041): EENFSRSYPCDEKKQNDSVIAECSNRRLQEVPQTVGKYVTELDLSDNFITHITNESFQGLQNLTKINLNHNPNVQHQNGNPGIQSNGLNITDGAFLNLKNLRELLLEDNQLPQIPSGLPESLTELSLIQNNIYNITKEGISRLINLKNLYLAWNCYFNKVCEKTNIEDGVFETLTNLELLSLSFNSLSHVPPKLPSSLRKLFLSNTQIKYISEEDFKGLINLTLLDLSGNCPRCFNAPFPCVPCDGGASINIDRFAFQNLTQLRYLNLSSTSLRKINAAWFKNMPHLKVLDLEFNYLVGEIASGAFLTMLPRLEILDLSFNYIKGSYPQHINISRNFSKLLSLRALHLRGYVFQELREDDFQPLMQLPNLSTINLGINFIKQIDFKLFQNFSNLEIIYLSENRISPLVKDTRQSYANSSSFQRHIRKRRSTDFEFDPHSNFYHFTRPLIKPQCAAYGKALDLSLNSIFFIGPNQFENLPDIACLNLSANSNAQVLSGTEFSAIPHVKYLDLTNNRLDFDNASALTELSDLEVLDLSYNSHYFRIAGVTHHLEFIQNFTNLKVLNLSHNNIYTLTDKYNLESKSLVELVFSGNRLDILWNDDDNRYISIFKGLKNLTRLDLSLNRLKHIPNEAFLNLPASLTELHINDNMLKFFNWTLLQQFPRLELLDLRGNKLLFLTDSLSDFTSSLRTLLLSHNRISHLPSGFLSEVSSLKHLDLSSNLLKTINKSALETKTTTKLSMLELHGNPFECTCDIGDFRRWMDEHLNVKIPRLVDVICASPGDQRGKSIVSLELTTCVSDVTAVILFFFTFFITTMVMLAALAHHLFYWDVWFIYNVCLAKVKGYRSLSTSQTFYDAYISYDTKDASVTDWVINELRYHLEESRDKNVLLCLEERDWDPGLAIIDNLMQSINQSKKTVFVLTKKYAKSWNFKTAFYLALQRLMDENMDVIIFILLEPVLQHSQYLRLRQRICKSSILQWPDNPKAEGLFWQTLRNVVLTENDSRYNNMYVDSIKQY
Procedure: as §1, §2

[1] = system: interferon-stimulated responsive elements (ISRE); test: Activation of ISRE promoter elements by conditioned media from PBMC (HEK-ISREluc); details: compound concentration applied to PBMCs overnight; supernatant on HEK-ISREluc cells 24 hours
Procedure: The potential of compounds to induce IFN-I was also evaluated by measuring the activation of interferon-stimulated responsive elements (ISRE) by conditioned media from PBMC. The ISRE element of sequence GAAACTGAAACT (SEQ ID NO: 1) is highly responsive to the STAT1-STAT2-IRF9 transcription factor, activated upon binding of IFN-I to their receptor IFNAR (Clontech, PT3372-5W). The plasmid pISRE-Luc from Clontech (ref. 631913) contains 5 copies of this ISRE element, followed by the firefly luciferase ORF. A HEK293 cell line stably transfected with pISRE-Luc (HEK-ISREluc) was established to profile the conditioned PBMC cell culture media.
Briefly, PBMCs were prepared from buffy coats of at least two donors using a standard Ficoll centrifugation protocol. Isolated PBMCs were resuspended in RPMI medium supplemented with 10% human AB serum and 2×10^5 cells/well were dispensed into 384-well plates containing compounds (70 μL total volume). After overnight incubation, 10 μL of supernatant was transferred to 384-well plates containing 5×10^3 HEK-ISREluc cells/well in 30 μL (plated the day before). Following 24 hours of incubation, activation of the ISRE elements was measured by assaying luciferase activity using 40 μL/well Steady Lite Plus substrate (Perkin Elmer) and measured with ViewLux ultraHTS microplate imager (Perkin Elmer). […]

CCCC[C@@H](CCS(C)(=O)=O)Nc1nc(N)ncc1OC [Compound 1]
Human TLR 7 (LEC) (human TLR7): 2.0 µM | Human TLR 8 (LEC) (human TLR8): 1.7 µM | HEK-ISRE luc (LEC) [1]: 0.65 µM

CCCC[C@@H](CC[S+](C)[O-])Nc1nc(N)ncc1OC (some centres unmarked) [Compound 2]
Human TLR 7 (LEC) (human TLR7): 1.4 µM | Human TLR 8 (LEC) (human TLR8): 9.2 µM | HEK-ISRE luc (LEC) [1]: 4.8 µM

CCCC[C@@H](CCSC)Nc1nc(N)ncc1OC [E]
Human TLR 7 (LEC) (human TLR7): 3.9 µM | Human TLR 8 (LEC) (human TLR8): 10 µM
